From US11576987B2, “Compositions and methods of treating melanoma” (UNIVERSITY OF IOWA RESEARCH FOUNDATION, priority 2016, dated 2023)
Positions of bridges follow the written chain, without caps; N, C: chain ends. Non-standard residues stand in square brackets, D forms with d. Residues, ends and D or L forms follow the SMILES beside them. Groups on a side chain read outwards from the residue. Triazole bridges read from a SMILES are 1,4-linked. *: point of attachment. DOTA = O=C(O)CN1CCN(CC(=O)O)CCN(CC(=O)*)CCN(CC(=O)O)CC1; Lys(N3) = [N-]=[N+]=NCCCC[CH](N)C(=O)O; Nle = CCCC[CH](N)C(=O)O; Pra = C#CC[CH](N)C(=O)O; PEG2 = NCCOCCOCCC(=O)O

Assays:
[1] = test system: MCR1 expression; assay: Pharmacological enhancement of MCR1 expression in human melanoma cells by drug incubation; format: cell-based; conditions: for MCR1 expression: metastatic melanoma cells
From the text: Melanoma if detected early can be cured by surgery, but metastatic melanoma is lethal. New therapies (e.g., immunotherapy; BRAF inhibition, BRAFi) and combinations extend life, but low response rates, acquired drug resistance, and serious side effects are major challenges to improving outcomes for disseminated disease (5 y survival 17%). Peptide-based radionuclide therapy targeted to the melanocortin-receptor type 1 (MCR1-RT) has long been considered a promising alternative; and MCR1-RT has achieved complete responses in mouse models (B16). However, MCR1 expression is heterogeneous/low in human melanoma, and as a result, no previous MCR1-RT study has employed successfully human melanoma cell xenografts. […] This introduces innovative Pb-specific chelator combined with a “click-cyclized” peptide (PSC-C-MCR1) to improve tumor:kidney ratio of radionuclide uptake 7-fold. An effective therapy for metastatic melanoma is developed that combines MCR1-RT with pharmacological agents (PBA; BRAFi/MEKi; HDACi) that enhance MCR1 expression.
Melanoma is the fastest growing cancer incidence in the United States. Surgery combined with radiation can be curative at early stages. However, metastatic melanoma is almost uniformly fatal (5-yr survival 17%). Recent breakthrough targeted MAPKi therapies (e.g., BRAFi) and immunotherapies (e.g., PD-1 inhibitors) have improved outcomes, but low response rates, acquired drug resistance, and adverse side effects limit quality of life for metastatic melanoma patients. For example, approval of immune-checkpoint inhibitor ipilimumab was based on an improvement in overall survival of only 3.7 months (overall response <15%). Combination immunotherapies have improved response (up to 61%), but grade 3/4 adverse events (up to 55%) often lead to therapy discontinuation (up to 36%). For targeted therapies, BRAF inhibitor vemurafenib was approved based on overall survival at 6 months of 84% vs 64% in the control arm (dacarbazine). Combining BRAFi with MEK inhibitors (MEKi) has led to modest improvements, yet recurrence is virtually inevitable. The mechanisms of acquired drug resistance are complex, and include altered/alternative oncogenic pathways; tumor heterogeneity; and enhanced DNA repair. Melanocortin-receptor type 1 targeted radionuclide therapy (MCR1-RT) has long been considered a promising alternative treatment for melanoma; and MCR1-targeted α-particle therapy (^212Pb) has achieved complete responses in mice bearing mouse (B16) tumors that highly express MCR1. However, these studies have been confined primarily to mouse melanoma (B16) cells because MCR1 expression is heterogeneous/low in human melanoma.
Combination therapies for metastatic melanoma are emerging as common practice (e.g., BRAFi plus MEK; and combination immunotherapies), but melanoma almost invariably develops resistance. MCR1-RT has long been considered a promising alternative, but previous therapy studies have been limited to the use of B16 mouse melanoma cells that highly express the MCR1 protein, because native MCR1 expression in human melanoma is heterogeneous/low.

[2] = test system: MC1R expression; assay: Real-time PCR analysis of MC1R expression in melanoma cells; format: cell-based, human; conditions: substantiated by flow cytometry and radiopeptide binding
Procedure: FIG. 10. Real-time PCR analysis of MC1R expression in A2058 and MEWO melanoma cells. A2058 cells were exposed to BRAFi GSK2118436, MEKi GSK1120212 and HDACi PBA for 24 h. Similarly, MEWO cells were treated with PBA and SAHA. Total RNA was isolated and reverse transcripted to cDNA. Real-time PCR was performed using 50 ng of each cDNA sample with labeled primer VIC-MC1R and FAM-NADPH. mRNA fold changes were calculated by ΔΔCt method and expressed as (n=3; Mean±SEM).
qPCR measurements are included to measure the change in MCR1 mRNA with changes in the concentration and incubation time for each drug and combinations (FIG. 10). These experiments are carried out as in FIG. 10 according to manufacturers' protocols, cells are seeded into 6-well plates until ˜80% confluent. After drug treatments, total RNA is isolated (Qiagen RNeasy Mini Kit). 1 μg of total RNA from each cell sample is used for reverse transcription using a high capacity reverse transcription kit (Applied Biosystem). cDNA samples are kept at −80° C. until use. Upon use, cDNA templates are employed in the qRT-PCR using a Taqman Gene Expression Assay for human MC1R (Assay ID: Hs00267167_s1). Human 18S (Assay ID: Hs99999901_s1) and human GAPDH (Assay ID: Hs03929097_g1) are used as housekeeping gene controls. […] Reactions are carried out in Applied Biosystem 7900HT. mRNA level is calculated by comparative ΔΔCt method.

[3] = test system: B16 mouse metastatic melanoma tumor model; assay: Tumor and kidney accumulation of click cyclized MCR1 peptide in mouse studies; format: in vivo; conditions: i.v. injection
From the text: (§1) The peptide backbone selected for the proposed investigation is based on a variant that was introduced previously with the addition of new evidence for improved internalization with the inclusion of a short polyethylene glycol linker between the chelator and the peptide backbone (FIG. 17). […] This peptide performance represents a 7-fold improvement in tumor:kidney ratio compared to the Re-cyclized peptide used previously. The use of the Re-cyclized peptide is for comparison to the previously published alpha-particle MCR1-targeted therapy study (using B16 mouse melanoma tumors). (Leachman S A, Cassidy P B, Chen S C, Curiel C, Geller A, Gareau D, Pellacani G, Grichnik J M, Malvehy J, North J, Jacques S L, Petrie T, Puig S, Swetter S M, Tofte S, Weinstock M A. Methods of Melanoma Detection. Cancer Treat Res. 2016; 167:51-105.) Thus, the DOTA-C-MCR1 (published previously) and new PSC-C-MCR1 peptides shown in FIG. 17 are used to take advantage of the observed improved tumor:kidney ratio.
(§2) Preliminary data support the hypothesis that co-injection of PBA with [^203Pb]MCR1-targeted peptides can reduce kidney accumulation of the radiopeptide (FIGS. 14A-B), while improving tumor accumulation in mice bearing human metastatic melanoma tumors (FIG. 14B imaging; FIGS. 15A-B therapy). […]

[4] = as above; format: in vivo; conditions: kidney, iv, 90 min. post i.v. injection
From the text: as §1, §2

[5] = test system: B16 mouse metastatic melanoma tumor model; conditions: 60 m post injection; cited from earlier work
[6] = test system: BRAFi-resistant A375VR cells; assay: Clonogenic survival of BRAFi-resistant melanoma cells; format: cell-based, human; conditions: 5 μM vemurafenib in the absence of PBA
Procedure: FIGS. 13A-13B. PBA treatment promotes cell death of BRAFi-resistant metastatic melanoma and upregulates MCR1 expression in a time dpe. (A) BRAFi-resistant A375VR cells were incubated with 5 μM vemurafenib in combination with ER-stress-relieving drug 4-PBA for up to 6 days. […] (B) Flow cytometry analysis of MCR1 expression in A2058 and A375 malignant melanoma cells. Cells were treated with 3 mmole 4-PBA for 4 h and 24 h (n=3). The treated and untreated (control) cells were stained with anti-MC1R-phycoerythrin (PE) monoclonal antibody conjugate. Fluorescence intensity was corrected by auto-fluorescence of cells without staining and data were expressed as relative fluorescence intensity (IF) (vs. control)±SD.
Accumulation of misfolded-proteins causes upregulation and detachment of ER resident protein GRP78 from ER sensors proteins—activating the unfolded protein response (UPR) and downstream signaling pathways (including autophagy). […] Thus, the potential for a pharmacological treatment that would sensitize BRAFi-resistant cells to BRAFi by reducing ER-stress was considered. BRAFi-resistant A375VR melanoma cells were incubated with BRAFi vemurafenib alone and in combination with ER-stress relieving PBA.

[7] = test system: metastatic melanoma; conditions: patients, cited from earlier work

O=C(CCCCCCC(=O)Nc1ccccc1)NO [Vorinostat]
enhancement of MCR1 expression ([1]; human melanoma cells, incubation with drug): up to 12 fold
MCR1 expression by RT-PCR [2]: Enhanced expression of MCR1

CCCCC(NC(C)=O)C(=O)NC1Cc2cn(nn2)CCCCC(C(=O)NC(CCCCNC(=O)CCOCCOCCNC(=O)CN2CCN(CC(=O)O)CCN(CC(=O)O)CCN(CC(=O)O)CC2)C(N)=O)NC(=O)C(Cc2c[nH]c3ccccc23)NC(=O)C(CCCNC(=N)N)NC(=O)C(Cc2ccccc2)NC(=O)C(Cc2c[nH]cn2)NC1=O (stereo not shown) [[^68Ga]DOTA-C-MCR1, metal not drawn] (Ac-[Nle][Pra]HFRW[Lys(N3)]K([PEG2-DOTA])-NH2; triazole 2-7; configuration not given here)
injected dose per gram (tumor) [3]: up to 16 % ID/g
tissue uptake at 1.5 h [4]: < 5 %ID/g
tumor:kidney ratio [5]: 3.4

O=C(c1ccc(F)c(F)c1Nc1ccc(I)cc1F)N1CC(O)([C@@H]2CCCCN2)C1 [cobimetinib]
MCR1 expression [1]: upregulate MCR1 expression

CC(C)(C)c1nc(-c2cccc(NS(=O)(=O)c3c(F)cccc3F)c2F)c(-c2ccnc(N)n2)s1 [dabrafenib]
MCR1 expression [1]: upregulate MCR1 expression

CCCS(=O)(=O)Nc1ccc(F)c(C(=O)c2c[nH]c3ncc(-c4ccc(Cl)cc4)cc23)c1F [vemurafenib]
MCR1 expression [1]: upregulate MCR1 expression
clonogenic survival [6]: No change in clonogenic survival
overall survival at 6 months ([7]; approval trial): 84%
slowing of tumor progression ([7]; metastatic melanoma): about 5.3 months

ipilimumab: immune-checkpoint inhibitor
improvement in overall survival ([7]; basis of approval): 3.7 months
overall response [7]: < 15%
